Counter-ions that a name gives are not always drawn.
Assay: Body weight, organ index and HE histopathology of treated mice
Assay type: in vivo
Conditions: for Change in body weight: tumor-bearing mice, intratumoral injection, 14 days, DOX 5 mg/kg, ICG 1 mg/kg, LASER groups 808 nm 1 W/cm^2 5 min
Experimental: Thirty female mice were randomly divided into 6 groups with 5 mice per group: (1) a saline group: injection of saline only; (2) a DOX group (5 mg/kg): injection of DOX; (3) a GEL/LASER group: a combined effect of the HPCS/MP hydrogel and NIR light irradiation; (4) a GEL/DOX (5 mg/kg) group: an effect of the HPCS/MP hydrogel encapsulating DOX·HCL; (5) a GEL/DOX (5 mg/kg)/LASER group: a combined effect of HPCS/MP hydrogel encapsulating DOX·HCL and NIR light irradiation, and (6) an indocyanine green (ICG) (1 mg/kg) group: injection of ICG. The different groups of mice were injected with 100 μL of saline, DOX, ICG, an HPCS/MP hydrogel precursor solution, and a GEL/DOX hydrogel precursor solution by intratumoral injection.
In the laser irradiation group LASER was irradiated for 5 min using an laser of 808 nm at a power of 1 W/cm^2 on days 2, 4, 6, 8, 10, and 12 after drug administration, and an irradiated site was a tumor site visible to naked eyes, with a light source positioned 5 cm from a body surface. The date of irradiation was designated as day 1, and an observation period extended to 14 days. A tumor volume was measured with a vernier caliper and a weight of the mice was weighed using an electronic balance every two days, and then a curve of the tumor volume, the body weight, and time was plotted. On the 14th day, the mice were euthanized, and axillary tumor bodies and tissues of the heart, liver, spleen, lung, and kidney of the mice were collected. The weights of the tumors and organ tissues of the various groups were accurately measured and recorded to calculate a tumor inhibition rate and an organ index of each group. Then immunohistochemistry and HE staining were performed for pathological analysis.

SMILES | HE staining of liver sections compared with control group (mice, 14th day) | HE staining of lung tissues (mice, 14th day) | HE staining of renal tissue sections (mice, 14th day) | HE staining of spleen tissues compared with control group (mice, 14th day) | Liver index compared to control group (mice, 14th day) | Change in body weight
COc1cccc2c1C(=O)c1c(O)c3c(c(O)c1C2=O)C[C@@](O)(C(=O)CO)C[C@@H]3O[C@H]1C[C@H](N)[C@H](O)[C@H](C)O1 [DOX, doxorubicin hydrochloride] | very loose | some degree of damage | some slight damage | tissues became loose | significantly reduced | significant downward trend in the body weight
CC1(C)C(/C=C/C=C/C=C/C=C2\N(CCCCS(=O)(=O)O)c3ccc4ccccc4c3C2(C)C)=[N+](CCCCS(=O)(=O)[O-])c2ccc3ccccc3c21 [ICG, indocyanine green] | slight loosening | – | – | – | – | decrease trend in the body weight

Reference: patent publication US12102682B1, “Injectable photothermal hydrogel based on melanin, preparation method, and application thereof” (OCEAN UNIVERSITY OF CHINA, priority 2023, dated 2024)
